6 compounds from patent US20240336642A1 (The General Hospital Corporation, priority 2021, published 2024) can be followed below.

Molecules are shown by their SMILES. Where a name gives a salt, the structure may show the parent alone.

One data set concerns the target h12/15-LOX (Homo sapiens (Human), UniProt P16050). Description: 12/15-LOX enzyme inhibition IC50 assay (Examples 1 and 2). It counts as biochemical. The note with it: for Emax: read-out: Max % inhibition. As for the experimental part: Enzyme was then added to the cuvettes. […] The % inhibition for each test compound concentration were calculated as follows: […]

Data set [1] is described as follows: Aqueous solubility of exemplified compounds (Example 3). The format is physicochemical. The note with it: for Sol: aqueous solubility.
A short description of data set [2]: Solubility in formulation vehicles (Solutol HS-15/PEG400, Captisol). The format is physicochemical. Particulars: for solution concentration achieved: 10% Solutol/90% PEG400; for solubility: aqueous with cosolvent or surfactant or cyclodextrin. As for the experimental part: Combinations of Solutol HS-15 (also known as Kolliphor HS-15) with PEG400 provided a good vehicle to solubilize the tested compounds. Specifically, 10% Solutol/90% PEG400 was used to prepare 20 mg/ml solutions of compound 1, compound 44, and compound 32. 10% Solutol/15% H2O/[…] led to 10 mg/ml solutions of the tested compounds.
(§1) 20 mg/ml were obtained in 20% Captisol, allowing for intravenous delivery in the mouse stroke model.

Data set [3] in a line: Metabolic stability of exemplified compounds (Example 4). It counts as in vitro ADME.
For data set [4], the system named is experimental stroke model in mice (MCAO). Nature of the data set: Mouse stroke model, filament middle cerebral artery occlusion (MCAO), infarct size. The format is in vivo. Here is the method:
Studies were carried out in experimental stroke model in mice, using the filament model of middle cerebral artery occlusion (MCAO). For intraperitoneal delivery, compounds were dissolved in DMSO. A number of exemplified compounds were able to reduce infarct size when given at a dosage of 40 mg/kg.
40 mg/kg cmpd. 1 were given i.p. at time of reperfusion. Infarct size was measured at 24 hours after 60 minutes MCAO.
MCAO (Experimental Middle Cerebral Artery Ischemia and Functional Recovery) experiment: 40 mg/kg of compound delivered intraperitoneally 2 h post reperfusion, 60 minutes MCAO, sacrifice at 24 h, infarct size determined by TTC staining.

Data set [5] in a line: Hydrolysis of prodrug in plasma. It counts as in vitro ADME. As for the experimental part:
as §1

The nature of data set [6]: In vivo conversion of prodrug to parent compound. Here is the method:
FIG. 1 contains chemical schemes showing in vivo conversion of prodrug compounds 51, 52, 53 to their parent compounds 22, 1, and 1, respectively.
as §1

Sequence of h12/15-LOX (P16050 whole entry): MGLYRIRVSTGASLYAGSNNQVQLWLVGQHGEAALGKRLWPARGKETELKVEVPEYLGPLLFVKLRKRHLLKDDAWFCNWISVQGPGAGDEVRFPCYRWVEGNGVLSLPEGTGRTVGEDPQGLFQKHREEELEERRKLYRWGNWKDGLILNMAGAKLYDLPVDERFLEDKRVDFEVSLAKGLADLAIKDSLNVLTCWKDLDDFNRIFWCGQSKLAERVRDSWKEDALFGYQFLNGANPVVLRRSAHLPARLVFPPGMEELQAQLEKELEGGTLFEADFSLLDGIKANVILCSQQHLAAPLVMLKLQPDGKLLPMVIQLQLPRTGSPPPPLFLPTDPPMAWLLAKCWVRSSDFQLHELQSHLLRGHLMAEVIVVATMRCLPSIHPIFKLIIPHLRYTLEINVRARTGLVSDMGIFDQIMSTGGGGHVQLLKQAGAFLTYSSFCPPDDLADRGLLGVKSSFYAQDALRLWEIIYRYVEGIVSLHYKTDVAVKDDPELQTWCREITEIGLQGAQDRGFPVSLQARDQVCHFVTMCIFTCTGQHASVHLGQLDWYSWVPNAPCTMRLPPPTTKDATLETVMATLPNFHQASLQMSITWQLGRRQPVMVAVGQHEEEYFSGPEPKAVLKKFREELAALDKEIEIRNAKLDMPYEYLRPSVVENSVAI

The IC50 is the concentration that gives 50% inhibition. Read a high IC50 as weaker potency in that assay. The term microsomal CLint denotes the rate of metabolic loss divided by the concentration. A lower microsomal CLint goes with slow turnover. At h12/15-LOX, `COCCOCCNc1oc(-c2cc(Cl)cc(Cl)c2Cl)nc1C#N` [Compound 32, 5-((2-(2-Methoxyethoxy)ethyl)amino)-2-(2,3,5-trichlorophenyl) oxazole-4-carbonitrile] displayed an IC50 of 610 nM. Also, the Emax on h12/15-LOX (h12/15-LOX) was 96%. The Sol entry in data set [1] was “++ (“++” 10-20 μM)”. In addition, in data set [2], the solution concentration achieved came to 20 mg/mL. Also, the “Extr (EH)” value in data set [3] (Human liver microsomes), in data set [3] (Mouse liver microsomes) and in data set [3] (Rat liver microsomes) was “* (“*” <50%)” throughout. For the same compound, the intrinsic clearance (microsomal CLint) in data set [3] (Human liver microsomes), in data set [3] (Mouse liver microsomes) and in data set [3] (Rat liver microsomes) was less than 20 µL/min/mg each time. Also, the infarct size reduction in data set [4] (40 mg/kg intraperitoneally 2 h post reperfusion, 60 minutes MCAO, sacrifice at 24 h, TTC staining, listed as Cmpd. 32) came to 31.8%; in data set [4] (40 mg/kg intraperitoneally 2 h post reperfusion, 60 minutes MCAO, sacrifice at 24 h, TTC staining, listed as compound 32), 31.8%.

`[2H]C([2H])([2H])Nc1oc(-c2cc(Cl)cc(Cl)c2Cl)nc1C#N` [Compound 44, 5-((methyl-d3)amino)-2-(2,3,5-trichlorophenyl) oxazole-4-carbonitrile] yielded a half-maximal inhibitory concentration (IC50) on h12/15-LOX of 90 nM. Further, the Emax at h12/15-LOX (h12/15-LOX) worked out at 91%. Besides, the solution concentration achieved in data set [2] was 20 mg/mL. Further, the infarct size reduction in data set [4] (40 mg/kg intraperitoneally 2 h post reperfusion, 60 minutes MCAO, sacrifice at 24 h, TTC staining) is on record as 29.6%.

Turning to `CC(C)OCCOCCNc1oc(-c2cc(Cl)cc(Cl)c2Cl)nc1C#N` [Compound 49, 5-((2-(2-Isopropoxyethoxy)ethyl)amino)-2-(2,3,5-trichlorophenyl)oxazole-4-carbonitrile], at h12/15-LOX, the IC50 came to 660 nM. Moreover, the Emax at h12/15-LOX (h12/15-LOX) worked out at 95%. Further, the Sol entry in data set [1] is “+ (“+” < 10 μM)”. Further, the “Extr (EH)” value in data set [3] (Human liver microsomes) is “* (“*” <50%)”; in data set [3] (Mouse liver microsomes), “** (“**” 50-100%)”; in data set [3] (Rat liver microsomes) it was “** (“**” 50-100%)”. The figures for the intrinsic metabolic clearance (microsomal CLint) in data set [3] (Human liver microsomes), in data set [3] (Mouse liver microsomes) and in data set [3] (Rat liver microsomes) were less than 20 µL/min/mg, 20 to 100 µL/min/mg and 20 to 100 µL/min/mg, respectively.

For `COCCOCCOCCNc1oc(-c2cc(Cl)cc(Cl)c2Cl)nc1C#N` [Compound 50, 5-((2-(2-(2-Methoxyethoxy)ethoxy)ethyl)amino)-2-(2,3,5-trichlorophenyl)oxazole-4-carbonitrile], the IC50 on h12/15-LOX is 890 nM. Besides, at h12/15-LOX (h12/15-LOX), the Max % inhibition was found to be 99%. Moreover, the Sol result in data set [1] is recorded as “+++ (“+++” 20-50 μM)”. The CLint entry in data set [3] (Human liver microsomes), in data set [3] (Mouse liver microsomes) and in data set [3] (Rat liver microsomes) was “++ (“++” 20-100 μL/min/mg)” in each case. For the same compound, the “Extr (EH)” value in data set [3] (Human liver microsomes), in data set [3] (Mouse liver microsomes) and in data set [3] (Rat liver microsomes) was “** (“**” 50-100%)” in each case.

With `N#Cc1nc(-c2cc(Cl)cc(Cl)c2Cl)oc1NCCCCCOP(=O)(O)O` [Compound 51, 5-((4-cyano-2-(2,3,5-trichlorophenyl)oxazol-5-yl)amino) pentyl dihydrogen phosphate], the IC50 against h12/15-LOX is more than 20000 nM. In addition, the hydrolysis in plasma entry in data set [5] was “susceptible to hydrolysis in plasma”. Besides, the “aqueous solubility versus parent compound” value in data set [1] is on record as “high aqueous solubility versus parent compound 22”.

By solubility is commonly meant how much of the substance goes into solution per volume. On to `CN(C)CCCOC(=O)N(C)c1oc(-c2cc(Cl)cc(Cl)c2Cl)nc1C#N` [Compound 52, 3-(dimethylamino) propyl (4-cyano-2-(2,3,5-trichlorophenyl)oxazol-5-yl)(methyl) carbamate hydrochloride], for which the half-inhibitory concentration (IC50) against h12/15-LOX was found to be 1400 nM. In addition, the solubility in data set [2] (20% Captisol) was found to be 20 mg/mL; in data set [2] (50% Captisol solution) it was 27 mg/mL. In addition, in data set [6], the “in vivo processing of prodrug” value is given as “processed to the parent molecule, compound 1”. The infarct size reduction in data set [4] (40 mg/kg i.v. in 50% Captisol, immediately after reperfusion, 24 h, hydrochloride) was 31.7%; in data set [4] (40 mg/kg i.v. in 50% Captisol, immediately after reperfusion, 24 h, listed as Cmpd. 52, hydrochloride), 31.7%.
